Test system: MCF-7 breast cancer cells
Assay: MTS proliferation/viability assay in MCF-7 breast cancer cells
Format: cell-based
Details: 50 μM, treated on plating in 10% foetal bovine serum, MTS 72 hrs after plating, p<0.05 vs methanol control (FIG. 8)
Procedure: FIG. 6 The effect of siRNA to CRACM1 (96 hrs) on the viability of MCF-7 cells, as measured by an MTS assay for cellular proliferation. Normalized MTS absorbance (proliferation/viability) of the mean of 3 independent experiments in MCF-7 breast cancer cells (±SEM). For each experiment absorbance was assessed in quadruplicate. Experiment was performed in 1% foetal bovine serum (p<0.05).
FIG. 8 MTS assay of MCF-7 cells treated with 50 μM 2-APB. * p<0.05 compared with respective methanol control. Error bars=SD. Cells were treated with 2-APB on plating in 10% foetal bovine serum. MTS assay was performed 72 hrs after plating.

## NCCOB(c1ccccc1)c1ccccc1 [2-APB, 2-aminoethoxydiphenyl borate]
  proliferation/viability of MCF-7 cells (MTS assay): inhibits the proliferation/viability of MCF-7 breast

— patent publication US8431536B2, “Target for breast cancer therapy and/or diagnosis” (The University of Queensland, priority 2007, dated 2013)
